Source: patent US10463713B2, “Use of AAC-11 inhibitors for the treatment of viral infection” (INSERM (Institut National de la Sante et de la Recherche …, priority 2016, dated 2019)

Key:
VSV-G HIV-1-particles = assay type: cell-based
[1] = test system: normal cells (blood cells from healthy donors); assay: Annexin-V/PI cell death of normal cells / blood cells from healthy donors under low-serum stress; assay type: cell-based; conditions: 24 hours, increasing concentrations, blood cells from healthy donors (FIG. 1)
Method: (§1) The indicated cell lines or blood cells from healthy donors were treated for 24 hours in a 37° C. incubator (5% CO2) with increasing concentrations of the Antp-AAC-11-LZ (377-399) before Annexin-V and PI staining. The percentages refer to Annexin-V-positive or Annexin-V-positive/PI-positive staining.
(§2) Detection of phosphatidylserine on apoptotic cells was performed by using an AnnexinV/propidium iodide (PI) detection kit (Beckman Coulter, Immunotech, Marseille, France) according to the manufacturer. Briefly, 5×10^5 cells were incubated in the dark at 4° C. with Annexin V-fluorescein isothiocyanate (FITC) and 2.5 μg/mL PI in phosphate buffer for 10 minutes before 18 000 ungated events were collected within the hour by flow cytometry (FACScalibur, BD Biosciences, Mansfield, Mass.) and analyzed with the ProCellQuest software provided by the manufacturer. In HIV-1 infection assays (see below), cell viability was determined with the help of LIVE/DEAD® Fixable Aqua stain kit as recommended by the manufacturer (Molecular Probes, Life Technologies, Saint Aubin, France).

HIV-1BX08 = assay type: cell-based; conditions: increasing amounts of peptide, three days, primary strain HIV-1BX08, human CD4+ T cells (FIG. 4A bottom panel)
HIV-1 BaL [2] = assay type: cell-based; conditions: three days; for HIV-1 replication (p24 antigen in supernatants) / elimination of HIV infected CD4+ T cells: 6 μM peptide, HIV-1 BaL, CD4+ T cells (FIG. 3); for HIV-1 replication (p24 antigen in supernatants) / elimination of HIV infected human CD4+ T cells: increasing amounts of peptide, HIV-1BaL, human CD4+ T cells (FIG. 4A upper panel)
SIVmac251 = assay type: cell-based, SIVmac; conditions: increasing amounts of peptide, three days, macaque CD4+ T cells (FIG. 4B)
cancer cells = assay: Annexin-V/PI cell death of cancer cell lines under low-serum stress; assay type: cell-based; conditions: 24 hours, increasing concentrations (FIG. 1)
Method: as §1, §2

HIV-1 BaL [3] = assay type: cell-based; conditions: 4 or 8 μM; added 10 minutes before infection and washed after two hours, or added two hours after infection and kept three days (FIG. 6)

Substance	percentage of GFP+ (infected) cells and of viable cells / elimination of HIV infected CD4+ T cells (VSV-G HIV-1-particles)	cell death (Annexin-V-positive or Annexin-V-positive/PI-positive staining) of normal cells [1]	HIV-1 replication (p24 antigen in supernatants) / elimination of HIV infected human CD4+ T cells (HIV-1BX08)	HIV-1 replication (p24 antigen in supernatants) / elimination of HIV infected CD4+ T cells (HIV-1 BaL [2])	HIV-1 replication (p24 antigen in supernatants) / elimination of HIV infected human CD4+ T cells (HIV-1 BaL [2])	SIVmac251 replication (p27 antigen in supernatants) / elimination of SIVmac infected macaque CD4+ T cells (SIVmac251)	cell death (Annexin-V-positive or Annexin-V-positive/PI-positive staining) of cancer cells (cancer cells)	HIV-1 infection of human macrophages (HIV-1 BaL [3])
Ac-RQIKIWFKKQNRRMKWKKLQYFARGLQVYIRQLRLALQGKT-NH2 [RT39]	induce the selective elimination	but not normal cells	induce the selective elimination	induce the selective elimination	induce the selective elimination	induce the selective elimination	induced cancer cells	–
RQIKIWFKKQNRRMKWKKAKLNAEKLKDFKIRLQYFARGLQVYIRQLRLALQGKT (Synthetic Antp-AAC-11-LZ (363-399) (RT53))	induce the selective elimination	–	induce the selective elimination	induce the selective elimination	induce the selective elimination	induce the selective elimination	–	block HIV-1 infection in human macrophages
RQIKIWFKKQNRRMKWKKYFARGLQVYIRQL (Synthetic Antp-AAC-11-LZ (379-391) (RL29))	–	–	–	induce the selective elimination	–	–	–	–
